{"source": "paper PMC5218480", "about": "(PLoS ONE, 2017)", "tested_on": "MV-4-11 cells", "assay": "Gene expression microarray analysis (Affymetrix PrimeView) and GSEA", "format": "cell-based, human", "design": "RFU PODN (11730768_x_at) / Fold change /veh PODN (11730768_x_at) / RFU LINC00158 (11744669_a_at) / Fold change /veh LINC00158 (11744669_a_at) / RFU DUSP10 (11751237_a_at) / Fold change /veh DUSP10 (11751237_a_at) / RFU ID3 (11757404_x_at) / Fold change /veh ID3 (11757404_x_at) / RFU PLEKHG5 (11737974_s_at) / Fold change /veh PLEKHG5 (11737974_s_at) / RFU LRRC4B (11730491_at) / Fold change /veh LRRC4B (11730491_at) / RFU GIMAP4 (11747438_a_at) / Fold change /veh GIMAP4 (11747438_a_at) / RFU KRT8 (11758183_x_at) / Fold change /veh KRT8 (11758183_x_at) / RFU CNN1 (11734310_a_at) / Fold change /veh CNN1 (11734310_a_at) / RFU VPS37D (11726825_at) / Fold change /veh VPS37D (11726825_at) / RFU C10orf10 (11716522_x_at) / Fold change /veh C10orf10 (11716522_x_at) / RFU KIR2DL2 /// KIR2DL4 /// KIR2DL5A /// KIR2DL5B /// KIR2DS1 /// KIR2DS2 /// KIR2DS3 /// KIR2DS4 /// KIR3DL3 /// KIR3DL3 /// KIR3DS1 (11738374_at) / Fold change /veh KIR2DL2 /// KIR2DL4 /// KIR2DL5A /// KIR2DL5B /// KIR2DS1 /// KIR2DS2 /// KIR2DS3 /// KIR2DS4 /// KIR3DL3 /// KIR3DL3 /// KIR3DS1 (11738374_at) / RFU C1QL1 (11718748_at) / Fold change /veh C1QL1 (11718748_at) / RFU TMPRSS4 (11747572_a_at) / Fold change /veh TMPRSS4 (11747572_a_at) / RFU HAMP (11756126_x_at) / Fold change /veh HAMP (11756126_x_at) / RFU RNFT2 (11725882_a_at) / Fold change /veh RNFT2 (11725882_a_at) / RFU NR4A2 (11747474_a_at) / Fold change /veh NR4A2 (11747474_a_at) / RFU ABCC12 (11746883_a_at) / Fold change /veh ABCC12 (11746883_a_at) / RFU TMEM136 (11760407_x_at) / Fold change /veh TMEM136 (11760407_x_at) / RFU CLDN22 /// WWC2 (11732394_at) / Fold change /veh CLDN22 /// WWC2 (11732394_at) / RFU HLA-DPB1 (11760878_x_at) / Fold change /veh HLA-DPB1 (11760878_x_at) / RFU SPINT1 (11716480_a_at) / Fold change /veh SPINT1 (11716480_a_at) / RFU GAP43 (11754022_s_at) / Fold change /veh GAP43 (11754022_s_at) / RFU A4GNT (11735810_at) / Fold change /veh A4GNT (11735810_at) / RFU PRB3 (11715151_x_at) / Fold change /veh PRB3 (11715151_x_at) / RFU TUBB4B (11761932_at) / Fold change /veh TUBB4B (11761932_at) / RFU CAPN14 (11732068_a_at) / Fold change /veh CAPN14 (11732068_a_at) / RFU TMCC2 (11721928_a_at) / Fold change /veh TMCC2 (11721928_a_at) / RFU IRGQ (11745062_a_at) / Fold change /veh IRGQ (11745062_a_at) / RFU FAM174B (11720279_a_at) / Fold change /veh FAM174B (11720279_a_at) / RFU TMPRSS4 (11748680_a_at) / Fold change /veh TMPRSS4 (11748680_a_at) / RFU FAM212B (11763350_a_at) / Fold change /veh FAM212B (11763350_a_at) / RFU PLEKHG5 (11743358_a_at) / Fold change /veh PLEKHG5 (11743358_a_at) / RFU ZSCAN30 (11745921_a_at) / Fold change /veh ZSCAN30 (11745921_a_at) / RFU CMKLR1 (11741424_a_at) / Fold change /veh CMKLR1 (11741424_a_at) / RFU LOC101060620 /// MAPK8IP1 (11723275_at) / Fold change /veh LOC101060620 /// MAPK8IP1 (11723275_at) / RFU SPTSSB (11747773_x_at) / Fold change /veh SPTSSB (11747773_x_at) / RFU PRSS12 (11739890_at) / Fold change /veh PRSS12 (11739890_at) / RFU BIN1 (11741810_x_at) / Fold change /veh BIN1 (11741810_x_at) / RFU WNT11 (11732464_a_at) / Fold change /veh WNT11 (11732464_a_at) / RFU C10orf10 (11716521_a_at) / Fold change /veh C10orf10 (11716521_a_at) / RFU C5orf56 (11738089_at) / Fold change /veh C5orf56 (11738089_at) / RFU CYB561 (11721691_x_at) / Fold change /veh CYB561 (11721691_x_at) / RFU ANKRD19P (11752326_a_at) / Fold change /veh ANKRD19P (11752326_a_at) / RFU OR2T12 /// OR2T33 /// OR2T8 (11738714_s_at) / Fold change /veh OR2T12 /// OR2T33 /// OR2T8 (11738714_s_at) / RFU VCAN (11748164_a_at) / Fold change /veh VCAN (11748164_a_at) / RFU JSRP1 (11732532_at) / Fold change /veh JSRP1 (11732532_at) / RFU KRTAP10-11 (11738290_x_at) / Fold change /veh KRTAP10-11 (11738290_x_at) / RFU MYO3A (11730013_a_at) / Fold change /veh MYO3A (11730013_a_at) / RFU EBF3 (11725865_a_at) / Fold change /veh EBF3 (11725865_a_at) / RFU CAMK2N1 (11719241_x_at) / Fold change /veh CAMK2N1 (11719241_x_at) / RFU C5orf56 (11738088_a_at) / Fold change /veh C5orf56 (11738088_a_at) / RFU OLFML3 (11715873_a_at) / Fold change /veh OLFML3 (11715873_a_at) / RFU LOC100653217 /// NTM (11731650_a_at) / Fold change /veh LOC100653217 /// NTM (11731650_a_at) / RFU MAPK11 (11762145_a_at) / Fold change /veh MAPK11 (11762145_a_at) / RFU FIZ1 (11724087_x_at) / Fold change /veh FIZ1 (11724087_x_at) / RFU OASL (11726364_x_at) / Fold change /veh OASL (11726364_x_at) / RFU SOX15 (11748057_x_at) / Fold change /veh SOX15 (11748057_x_at) / RFU CD79A (11719716_a_at) / Fold change /veh CD79A (11719716_a_at) / RFU HIST1H1D (11736915_at) / Fold change /veh HIST1H1D (11736915_at) / RFU CASKIN2 (11723855_a_at) / Fold change /veh CASKIN2 (11723855_a_at) / RFU LOC730098 (11760151_x_at) / Fold change /veh LOC730098 (11760151_x_at) / RFU OR4N2 (11742367_at) / Fold change /veh OR4N2 (11742367_at) / RFU PRRT2 (11749266_a_at) / Fold change /veh PRRT2 (11749266_a_at) / RFU SNX32 (11753110_a_at) / Fold change /veh SNX32 (11753110_a_at) / RFU CDHR5 (11726645_a_at) / Fold change /veh CDHR5 (11726645_a_at) / RFU RCAN1 (11760418_a_at) / Fold change /veh RCAN1 (11760418_a_at) / RFU FAM167A (11723789_a_at) / Fold change /veh FAM167A (11723789_a_at) / RFU FAM26E (11764081_at) / Fold change /veh FAM26E (11764081_at) / RFU ISYNA1 (11749810_s_at) / Fold change /veh ISYNA1 (11749810_s_at) / RFU ACY1 (11761880_at) / Fold change /veh ACY1 (11761880_at) / RFU 11764098_at / Fold change /veh 11764098_at / RFU SAMD14 (11745864_x_at) / Fold change /veh SAMD14 (11745864_x_at) / RFU NPB (11741838_a_at) / Fold change /veh NPB (11741838_a_at) / RFU TMPRSS6 (11731388_a_at) / Fold change /veh TMPRSS6 (11731388_a_at) / RFU KRTAP10-2 (11738614_at) / Fold change /veh KRTAP10-2 (11738614_at) / RFU ARHGAP8 /// PRR5-ARHGAP8 (11727945_x_at) / Fold change /veh ARHGAP8 /// PRR5-ARHGAP8 (11727945_x_at) / RFU KRTAP5-7 /// NADSYN1 (11734609_at) / Fold change /veh KRTAP5-7 /// NADSYN1 (11734609_at) / RFU RASL12 (11751679_a_at) / Fold change /veh RASL12 (11751679_a_at) / RFU CDKN2B (11736163_a_at) / Fold change /veh CDKN2B (11736163_a_at) / RFU PRF1 (11729649_at) / Fold change /veh PRF1 (11729649_at) / RFU, ZNF638 /// ZNF638-IT1 / Fold change vs veh, ZNF638 /// ZNF638-IT1 / RFU, PANK3 / Fold change vs veh, PANK3 / RFU, SH3YL1 / Fold change vs veh, SH3YL1 / RFU, ZEB2 / Fold change vs veh, ZEB2 / RFU, NRIP1 / Fold change vs veh, NRIP1 / RFU, PTTG1IP / Fold change vs veh, PTTG1IP / RFU, CAPN2 / Fold change vs veh, CAPN2 / RFU, MED14 / Fold change vs veh, MED14 / RFU, SNORA58 / Fold change vs veh, SNORA58 / RFU, C1orf63 / Fold change vs veh, C1orf63 / RFU, LRRFIP1 / Fold change vs veh, LRRFIP1 / RFU, NDUFAF7 / Fold change vs veh, NDUFAF7 / RFU, SLC12A2 / Fold change vs veh, SLC12A2 / RFU, IBTK / Fold change vs veh, IBTK / RFU, ESF1 / Fold change vs veh, ESF1 / Fold change vs veh, TMEM50B / RFU, TAOK1 / Fold change vs veh, TAOK1 / RFU, ACBD3 / Fold change vs veh, ACBD3 / RFU, TMA16 / Fold change vs veh, TMA16 / RFU, RWDD3 / Fold change vs veh, RWDD3 / RFU, BCAT1 / Fold change vs veh, BCAT1 / RFU, EDEM3 / Fold change vs veh, EDEM3 / RFU, TMEM33 / Fold change vs veh, TMEM33 / RFU, WDR75 / Fold change vs veh, WDR75 / RFU, AHCTF1 / Fold change vs veh, AHCTF1 / RFU, TFRC / Fold change vs veh, TFRC / RFU, ZDHHC17 / Fold change vs veh, ZDHHC17 / RFU, NOM1 / Fold change vs veh, NOM1 / RFU, ARL8B / Fold change vs veh, ARL8B / RFU, ZBTB11 / Fold change vs veh, ZBTB11 / RFU, TAMM41 / Fold change vs veh, TAMM41 / RFU, KIAA1704 /// LOC100996395 / Fold change vs veh, KIAA1704 /// LOC100996395 / RFU, ING1 / Fold change vs veh, ING1 / RFU, TRMT61B / Fold change vs veh, TRMT61B / RFU, FUBP3 / Fold change vs veh, FUBP3 / RFU, TP53 / Fold change vs veh, TP53 / RFU, TNKS2 / Fold change vs veh, TNKS2 / RFU, ZFP14 / Fold change vs veh, ZFP14 / RFU, ACTR2 / Fold change vs veh, ACTR2 / RFU, PPP3R1 / Fold change vs veh, PPP3R1 / RFU, PIK3R1 / Fold change vs veh, PIK3R1 / RFU, HNRNPA1 / Fold change vs veh, HNRNPA1 / RFU, RNF170 / Fold change vs veh, RNF170 / RFU, ZNF28 / Fold change vs veh, ZNF28 / RFU, RNGTT / Fold change vs veh, RNGTT / RFU, OGT / Fold change vs veh, OGT / RFU, BRD1 / Fold change vs veh, BRD1 / RFU, MARS / Fold change vs veh, MARS / RFU, ZNF655 / Fold change vs veh, ZNF655 / RFU, FAHD1 / Fold change vs veh, FAHD1 / RFU, BDP1 / Fold change vs veh, BDP1 / RFU, LRRCC1 / Fold change vs veh, LRRCC1 / RFU, ARID1A / Fold change vs veh, ARID1A / RFU, ZNF146 / Fold change vs veh, ZNF146 / RFU, ZNF330 / Fold change vs veh, ZNF330 / RFU, GPN3 / Fold change vs veh, GPN3 / RFU, C9orf123 / Fold change vs veh, C9orf123 / RFU, N4BP2L2 / Fold change vs veh, N4BP2L2 / RFU, ARFIP1 / Fold change vs veh, ARFIP1 / RFU, FAM179B / Fold change vs veh, FAM179B / RFU, BCL10 / Fold change vs veh, BCL10 / RFU, UHRF1BP1L / Fold change vs veh, UHRF1BP1L / RFU, BET1 / Fold change vs veh, BET1 / RFU, CNOT2 / Fold change vs veh, CNOT2 / RFU, ZNF268 / Fold change vs veh, ZNF268 / Fold change vs veh, ZNF507 / RFU, DGCR2 / Fold change vs veh, DGCR2 / RFU, WDSUB1 / Fold change vs veh, WDSUB1 / Fold change vs veh, HSP90B1 /// MIR3652 / RFU, ADSS / Fold change vs veh, ADSS / RFU, GK / Fold change vs veh, GK / RFU, ZNF148 / Fold change vs veh, ZNF148 / RFU, TAF9 / Fold change vs veh, TAF9 / RFU, SLC1A5 / Fold change vs veh, SLC1A5 / RFU, SLMO2 / Fold change vs veh, SLMO2 / RFU, ABCC4 / Fold change vs veh, ABCC4 / RFU, LOC101060439 /// RAP1B / Fold change vs veh, LOC101060439 /// RAP1B / RFU, RFX7 / Fold change vs veh, RFX7 / RFU, GTPBP10 / Fold change vs veh, GTPBP10 / RFU, CNEP1R1 / Fold change vs veh, CNEP1R1 / RFU, BIVM-ERCC5 /// ERCC5 / Fold change vs veh, BIVM-ERCC5 /// ERCC5 / RFU, ILF3 / Fold change vs veh, ILF3 / RFU 11762660_at / Fold change /veh 11762660_at / RFU VCAN (11757783_s_at) / Fold change /veh VCAN (11757783_s_at) / RFU DDX43 (11728927_at) / Fold change /veh DDX43 (11728927_at) / RFU KRT8 (11758188_x_at) / Fold change /veh KRT8 (11758188_x_at) / RFU NKD1 (11759106_at) / Fold change /veh NKD1 (11759106_at) / RFU SRD5A1 (11742802_a_at) / Fold change /veh SRD5A1 (11742802_a_at) / RFU TPSAB1 /// TPSB2 (11721975_s_at) / Fold change /veh TPSAB1 /// TPSB2 (11721975_s_at) / RFU GSTM3 (11746129_a_at) / Fold change /veh GSTM3 (11746129_a_at) / RFU IL23R (11737362_x_at) / Fold change /veh IL23R (11737362_x_at) / RFU TMEM51 (11727254_a_at) / Fold change /veh TMEM51 (11727254_a_at) / RFU PIWIL2 (11732686_x_at) / Fold change /veh PIWIL2 (11732686_x_at) / RFU ORM1 (11744905_x_at) / Fold change /veh ORM1 (11744905_x_at) / RFU CCDC152 (11743942_at) / Fold change /veh CCDC152 (11743942_at) / RFU ECM1 (11717891_a_at) / Fold change /veh ECM1 (11717891_a_at) / RFU IL23R (11748794_a_at) / Fold change /veh IL23R (11748794_a_at) / RFU TNFAIP8L3 (11732012_x_at) / Fold change /veh TNFAIP8L3 (11732012_x_at) / RFU MBOAT4 (11741988_at) / Fold change /veh MBOAT4 (11741988_at) / RFU 11764193_at / Fold change /veh 11764193_at / RFU TMEM53 (11763286_at) / Fold change /veh TMEM53 (11763286_at) / RFU MAGEB2 (11727129_at) / Fold change /veh MAGEB2 (11727129_at) / RFU TMEM200A (11744735_a_at) / Fold change /veh TMEM200A (11744735_a_at) / RFU CCDC152 (11751479_a_at) / Fold change /veh CCDC152 (11751479_a_at) / RFU FAM211A (11726209_a_at) / Fold change /veh FAM211A (11726209_a_at) / RFU RGS16 (11746705_a_at) / Fold change /veh RGS16 (11746705_a_at) / RFU VCAN (11755009_s_at) / Fold change /veh VCAN (11755009_s_at) / RFU RHOB (11743442_s_at) / Fold change /veh RHOB (11743442_s_at) / RFU RGS16 (11720943_a_at) / Fold change /veh RGS16 (11720943_a_at) / RFU RGS16 (11720944_at) / Fold change /veh RGS16 (11720944_at) / RFU, VPS4B / Fold change vs veh, VPS4B / RFU, CREB1 / Fold change vs veh, CREB1 / RFU, DNAJC13 / Fold change vs veh, DNAJC13 / RFU, GNAQ / Fold change vs veh, GNAQ / RFU, CDK5R1 / Fold change vs veh, CDK5R1 / RFU, ZRANB3 / Fold change vs veh, ZRANB3 / RFU, CUL4A / Fold change vs veh, CUL4A / RFU, CCNY / Fold change vs veh, CCNY / RFU, UFL1 / Fold change vs veh, UFL1 / RFU, COG3 / Fold change vs veh, COG3 / RFU, DIAPH2 / Fold change vs veh, DIAPH2 / RFU, SKA2 / Fold change vs veh, SKA2 / RFU, AFF3 / Fold change vs veh, AFF3 / RFU, LMF1 / Fold change vs veh, LMF1 / RFU, IPO11 / Fold change vs veh, IPO11 / RFU, DFFB / Fold change vs veh, DFFB / RFU, FOXP1 / Fold change vs veh, FOXP1 / RFU, CARD8 / Fold change vs veh, CARD8 / RFU, STRN3 / Fold change vs veh, STRN3 / RFU, ADK / Fold change vs veh, ADK / RFU, RASSF2 / Fold change vs veh, RASSF2 / RFU, WIPF1 / Fold change vs veh, WIPF1 / RFU, LARP1B / Fold change vs veh, LARP1B / RFU, RASA1 / Fold change vs veh, RASA1 / RFU, RB1 / Fold change vs veh, RB1 / RFU, PPFIA1 / Fold change vs veh, PPFIA1 / RFU, MAT2A / Fold change vs veh, MAT2A / RFU, CCT5 / Fold change vs veh, CCT5 / RFU, WDR92 / Fold change vs veh, WDR92 / RFU, CUX1 / Fold change vs veh, CUX1 / RFU, TTC7A / Fold change vs veh, TTC7A / RFU, TMEM135 / Fold change vs veh, TMEM135 / RFU, DEPTOR / Fold change vs veh, DEPTOR / RFU, CPM / Fold change vs veh, CPM / RFU, DNAJB6 / Fold change vs veh, DNAJB6 / RFU, CACNA2D3 / Fold change vs veh, CACNA2D3 / RFU, DTX4 / Fold change vs veh, DTX4 / RFU, TFCP2 / Fold change vs veh, TFCP2 / RFU, GMCL1 /// GMCL1P1 / Fold change vs veh, GMCL1 /// GMCL1P1 / RFU, AEBP2 / Fold change vs veh, AEBP2 / RFU, SNHG1 /// SNORD22 /// SNORD25 /// SNORD26 /// SNORD27 /// SNORD28 /// SNORD29 /// SNORD31 / Fold change vs veh, SNHG1 /// SNORD22 /// SNORD25 /// SNORD26 /// SNORD27 /// SNORD28 /// SNORD29 /// SNORD31 / Fold change (Aza/veh), C12orf56 (ProbeSet 11735607_a_at) / Fold change (ACY-1035/veh), C12orf56 (ProbeSet 11735607_a_at) / Fold change (Aza/veh), FGFR1OP (ProbeSet 11751329_s_at) / Fold change (ACY-1035/veh), FGFR1OP (ProbeSet 11751329_s_at) / Fold change (Aza/veh), VPS36 (ProbeSet 11739960_a_at) / Fold change (ACY-1035/veh), VPS36 (ProbeSet 11739960_a_at) / RFU SYPL1 (11715823_x_at) / Fold change /veh SYPL1 (11715823_x_at) / RFU IGFBP7 (11715501_s_at) / Fold change /veh IGFBP7 (11715501_s_at) / RFU REEP3 (11722064_at) / Fold change /veh REEP3 (11722064_at) / RFU IGLL1 (11728026_x_at) / Fold change /veh IGLL1 (11728026_x_at): dose or concentration left out as unconfirmed", "details": "MV-4-11 cells, 48 hours", "data": [{"smiles": "Nc1ncn([C@@H]2O[C@H](CO)[C@@H](O)[C@H]2O)c(=O)n1", "note": "[azacitidine]", "values": [{"measurement": "Fold change /veh ARHGAP8 /// PRR5-ARHGAP8 (11727945_x_at)", "value": 0.99}]}]}
